The values that follow come from patent US7649012B2, “Compounds, pharmaceutical compositions containing same, and methods of use for same” (FASgen, Inc., priority 2002, dated 2010).

Converted amounts (≈) assume the structure as drawn. Like-named read-outs stand apart in the source and are kept apart here.

Experiment [1] concerns MCF-7 human breast cancer cells. In words: XTT cytotoxicity assay. As to conditions: MCF7, MCF-7, 72 hours, some cells marked (M). The class given is cell-based. Here is the method: The XTT assay is a non-radioactive alternative for the [^51 Cr] release cytotoxicity assay. XTT is a tetrazolium salt that is reduced to a formazan dye only by metabolically active, viable cells. The reduction of XTT is measured spectrophotometrically as OD490-OD650.
To measure the cytotoxicity of specific compounds against cancer cells, 9×10^3 MCF-7 human breast cancer cells, obtained from the American Type Culture Collection are plated per well in 96 well plates in DMEM medium with 10% fetal bovine serum, insulin, penicillin, and streptomycin. Following overnight culture at 37° C. and 5% CO2, the compounds to be tested, dissolved in DMSO, are added to the wells in 1 μl volume at the following concentrations: 80, 40, 20, 10, 5, 2.5, 1.25, and 0.625 μg/ml in triplicate. Additional concentrations are tested if required. 1 μl of DMSO is added to triplicate wells are the vehicle control. C75 is run at 40, 20, […], and 5 μg/ml in triplicate as positive controls. After 72 hours of incubation, cells are incubated for 4 hours with the XTT reagent as per manufacturer's instructions (Cell Proliferation Kit II (XTT) Roche). Plates are read at OD490 and OD650 on a Molecular Devices SpectraMax Plus Spectrophotometer. Three wells containing the XTT reagent without cells serve as the plate blank. XTT data are reported as OD490-OD650-Averages and standard error of the mean are computed using SOFTmax Pro software (Molecular Dynamics).
The IC50 for the compounds is defined as the concentration of drug leading to a 50% reduction in OD490-OD650 compared to controls. The OD490-OD650 are computed by the SOFTmax PRO software (Molecular Devices) for each compound concentration. IC50 is calculated by linear regression, plotting the FAS activity as percent of control versus drug concentrations. Linear regression, best-fit line, r^2, and 95% confidence intervals are determined using Prism Version 3.0 (Graph Pad Software).

Experiment [2] has the same test system. In words: Crystal violet cell growth assay. The class given is cell-based. Conditions: MCF7, MCF-7, 72 hours, read-out: Cr. Violet(IC50). A digest of the protocol: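 MCF-7 cells (5×10^4/well) in DMEM + 10% FBS, cultured overnight at 37° C, then given compounds in DMSO at 50, 40, 30, 20 and 10 μg/ml in triplicate for 72 h. Fixed cells stained with crystal violet, solubilised in SDS, OD490 read as growth; IC50 computed.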

Experiment [3] in a line: Weight loss screen in Balb/C mice. Conditions: Mus musculus, read-out: Weight Loss; for change in vivo at 60 mg/kg: ip. The class given is in vivo. Here is the method:
Balb/C mice (Jackson Labs) are utilized for the initial weight loss screening. Animals are housed in temperature and 12 hour day/night cycle rooms and fed mouse chow and water ad lib. Three mice are utilized for each compound tested with vehicle controls in triplicate per experiment. For the experiments, mice are housed separately for each compound tested three mice to a cage. […] Mice are observed and weighed daily; average weights and standard errors are computed with Excel (Microsoft). The experiment continues until treated animals reach their pretreatment weights. […]

Experiment [4] deals with Enterococcus faecalis (ATCC # 29212). In words: Broth microdilution MIC. The class given is cell-based. As to conditions: for MIC: Enterococcus faecalis, ATCC29212. The procedure, abridged:
(§1)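 Run in Mueller Hinton Broth and Trypticase Soy Broth, with inoculum at 0.5 McFarland diluted 1:10 and compounds in DMSO at 25 to 0.78 ug/ml (final well concentrations not given) in duplicate. OD600 read after 24 h at 37° C; MIC derived by linear regression.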
For orientation: Broth dilution looks for growth in wells or tubes with falling amounts of substance.

Experiment [5] deals with Escherichia coli (ATCC # 25922). The experiment in a line: Broth microdilution MIC. The class given is cell-based. Conditions: for MIC: Escherichia coli, ATCC25922. The procedure, abridged:
as §1

In experiment [6] the test system is Pseudomonas aeruginosa (ATCC # 27853). The experiment in a line: Broth microdilution MIC. The class given is cell-based. Conditions: for PSAE/MH(MIC): Mueller Hinton Broth; for PSAE/Tsoy(MIC): Trypticase Soy Broth. The procedure, abridged: as §1
In experiment [7] the test system is Staphylococcus aureus (ATCC # 29213). In words: Broth microdilution MIC. The class given is cell-based. Conditions: for MIC: Staphylococcus aureus, ATCC29213. A digest of the protocol: as §1
[8] abbreviates: 24 h, 60 mg/kg intraperitoneally, day1.
[9] abbreviates: Mueller Hinton Broth, read-out: EF/MH(MIC).
Where [10] appears, read: Trypticase Soy Broth, read-out: SA/Tsoy(MIC).
[11] abbreviates: Mueller Hinton Broth, read-out: SA/MH(MIC).
[12] abbreviates: 48 h, 60 mg/kg intraperitoneally, day2.
Where [13] appears, read: Trypticase Soy Broth, read-out: EF/Tsoy(MIC).
Where [14] appears, read: Trypticase Soy Broth, read-out: Ecoli/Tsoy(MIC).

Broadly, the IC50 is the concentration needed to halve the response being measured.

As for `CCCCCCCC[C@@]1(C)SC(=O)C=C1OCC(=O)OCC` (racemic), the IC50 stood at 35.3 ± 10.4 µg/mL (≈ 107 µM) in experiment [1] and 17.9 ± 5.1 µg/mL (≈ 54.5 µM) in experiment [2]. In experiment [3] (24 h), the change in vivo at 30 mg/kg was found to be 4.5%. Besides, the change in vivo at 60 mg/kg in experiment [3] (setting [8]) stood at 1.8%. The values for the MIC in experiment [4] (setting [9]) and in experiment [7] (setting [10]) were 86 µg/mL (≈ 262 µM) and 83 µg/mL (≈ 253 µM), respectively. For the same compound, the “EF/Tsoy(MIC)” value in experiment [4] (Trypticase Soy Broth) was “Neg”. Moreover, the “Ecoli/MH(MIC)” value in experiment [5] (Mueller Hinton Broth) is “Neg”. The “Ecoli/Tsoy(MIC)” value in experiment [5] (Trypticase Soy Broth) is reported as “Neg”. Moreover, in experiment [6], the “PSAE/MH(MIC)” value was “Neg”. Moreover, the “PSAE/Tsoy(MIC)” value in experiment [6] is listed as “Neg”. For the same compound, in experiment [7] (Mueller Hinton Broth), the “SA/MH(MIC)” value is listed as “Neg”.

With `CCCCCCCCC1(C)SC(=O)C=C1OC` (stereo not shown), the IC50 in experiment [1] came to 16.4 ± 2.3 µg/mL (≈ 64 µM); in experiment [2], 21.4 µg/mL (≈ 83.5 µM). For the same compound, the change in vivo at 60 mg/kg in experiment [3] (setting [8]) came out at 6.1%. Also, the values for the MIC in experiment [4] (setting [9]), in experiment [7] (setting [11]) and in experiment [7] (setting [10]) were 72 µg/mL (≈ 281 µM), 252 µg/mL (≈ 983 µM) and 67 µg/mL (≈ 261 µM), respectively. Moreover, the “EF/Tsoy(MIC)” value in experiment [4] (Trypticase Soy Broth) is “Neg”. Also, in experiment [5] (Mueller Hinton Broth), the “Ecoli/MH(MIC)” value is reported as “Neg”. For the same compound, in experiment [5] (Trypticase Soy Broth), the “Ecoli/Tsoy(MIC)” value is reported as “Neg”. Also, the “PSAE/MH(MIC)” value in experiment [6] was “Neg”. Also, the “PSAE/Tsoy(MIC)” value in experiment [6] is given as “Neg”.

As for `CCCCCCCC[C@@]1(C)SC(=O)C(C(C)=O)=C1O` (racemic), the results for the IC50 in experiment [1] and in experiment [2] were 125 ± 0.7 µg/mL (≈ 439 µM) and 8.4 µg/mL (≈ 29.5 µM), respectively. Also, the change in vivo at 60 mg/kg in experiment [3] (setting [12]) worked out at 8.2%. Further, the MIC in experiment [4] (setting [9]) is 2.5 µg/mL (≈ 8.79 µM); in experiment [4] (setting [13]) it was 2 µg/mL (≈ 7.03 µM); in experiment [5] (setting [14]), 177 µg/mL (≈ 622 µM); in experiment [7] (setting [11]) it was 3.4 µg/mL (≈ 12 µM); in experiment [7] (setting [10]), 1.4 µg/mL (≈ 4.92 µM). For the same compound, the “Ecoli/MH(MIC)” value in experiment [5] (Mueller Hinton Broth) was “Neg”. Moreover, in experiment [6], the “PSAE/MH(MIC)” value is listed as “Neg”. Moreover, the “PSAE/Tsoy(MIC)” value in experiment [6] is on record as “Neg”.

As for `C=CCOC(=O)OC1=CC(=O)S[C@]1(C)CCCCCCCC` (racemic), the values for the IC50 in experiment [1] and in experiment [2] were 34.9 ± 10 µg/mL (≈ 107 µM) and 35.8 µg/mL (≈ 110 µM), respectively. In addition, the change in vivo at 30 mg/kg in experiment [3] (48 h) came out at 1%. For the same compound, the change in vivo at 60 mg/kg in experiment [3] (setting [12]) was found to be 6.2%. Moreover, the MIC in experiment [4] (setting [9]) came to 79 µg/mL (≈ 242 µM); in experiment [4] (setting [13]) it was 75 µg/mL (≈ 230 µM); in experiment [5] (Mueller Hinton Broth, read-out: Ecoli/MH(MIC)), 82 µg/mL (≈ 251 µM); in experiment [5] (setting [14]), 87 µg/mL (≈ 266 µM); in experiment [7] (setting [11]), 57 µg/mL (≈ 175 µM); in experiment [7] (setting [10]), 28 µg/mL (≈ 85.8 µM). Also, the “PSAE/MH(MIC)” value in experiment [6] is “Neg”. In addition, the “PSAE/Tsoy(MIC)” value in experiment [6] is “Neg”.

Consider `CCCC/C=C/C=C/C1(C)SC(=O)C=C1O` (stereo not shown), for which the IC50 in experiment [1] was 59.4 ± 6.4 µg/mL (≈ 249 µM); in experiment [2], 43.9 ± 4.8 µg/mL (≈ 184 µM). In experiment [3] (144 h), the change in vivo at 60 mg/kg was 11%. Further, the MIC in experiment [4] (setting [9]) stood at 78 µg/mL (≈ 327 µM); in experiment [4] (setting [13]) it was 42 µg/mL (≈ 176 µM); in experiment [5] (setting [14]), 263 µg/mL (≈ 1100 µM); in experiment [7] (setting [10]) it was 55 µg/mL (≈ 231 µM). For the same compound, the “Ecoli/MH(MIC)” value in experiment [5] (Mueller Hinton Broth) is given as “Neg”. In addition, the “PSAE/MH(MIC)” value in experiment [6] was “Neg”. The “PSAE/Tsoy(MIC)” value in experiment [6] is recorded as “Neg”. Also, the “SA/MH(MIC)” value in experiment [7] (Mueller Hinton Broth) is recorded as “Neg”.

In the case of `CCCCCCCCC1(C)SC(=O)C=C1O` (stereo not shown), the IC50 came out at 17.6 ± 0.1 µg/mL (≈ 72.6 µM) in experiment [1] and 28.7 µg/mL (≈ 118 µM) in experiment [2]. The change in vivo at 30 mg/kg in experiment [3] (72 h) is 4.8%. For the same compound, the MIC in experiment [4] (setting [9]) was determined as 16.9 µg/mL (≈ 69.7 µM); in experiment [4] (setting [13]), 3.3 µg/mL (≈ 13.6 µM); in experiment [5] (setting [14]), 278 µg/mL (≈ 1150 µM); in experiment [7] (setting [10]) it was 47 µg/mL (≈ 194 µM). The “Ecoli/MH(MIC)” value in experiment [5] (Mueller Hinton Broth) was “Neg”. For the same compound, the “PSAE/MH(MIC)” value in experiment [6] is listed as “Neg”. For the same compound, the “PSAE/Tsoy(MIC)” value in experiment [6] is given as “Neg”. In addition, in experiment [7] (Mueller Hinton Broth), the “SA/MH(MIC)” value is given as “Neg”.

For the compound `CC1(Cc2ccccc2)SC(=O)C=C1O` (stereo not shown), the IC50 was greater than 80 µg/mL in experiment [1] and greater than 50 µg/mL in experiment [2]. Also, the change in vivo at 60 mg/kg in experiment [3] (setting [12]) came to 1.6%. The MIC in experiment [4] (setting [9]) amounted to 128 µg/mL (≈ 581 µM); in experiment [5] (setting [14]) it was 299 µg/mL (≈ 1360 µM); in experiment [7] (setting [11]), 57 µg/mL (≈ 259 µM); in experiment [7] (setting [10]), 67 µg/mL (≈ 304 µM). Besides, the “EF/Tsoy(MIC)” value in experiment [4] (Trypticase Soy Broth) is reported as “Neg”. For the same compound, the “Ecoli/MH(MIC)” value in experiment [5] (Mueller Hinton Broth) is on record as “Neg”. For the same compound, in experiment [6], the “PSAE/MH(MIC)” value is listed as “Neg”. Besides, the “PSAE/Tsoy(MIC)” value in experiment [6] was “Neg”.
